Test results taken from PMC7241567 (Journal of Enzyme Inhibition and Medicinal Chemistry, 2020).
“Also recorded” adds a separate entry of the source.

Key:
Assay type in all cases: biochemical
FLT3 = target: T1, FLT3 (Homo sapiens, UniProt P36888); assay: Reaction Biology Kinase HotSpot radiometric kinase assay; details: for IC50: FLT3 wild type, read-out: IC50 against FLT3
T1 construct: purchased Reaction Biology Corp. (Kinase HotSpot service)
T1 sequence (P36888 27-993): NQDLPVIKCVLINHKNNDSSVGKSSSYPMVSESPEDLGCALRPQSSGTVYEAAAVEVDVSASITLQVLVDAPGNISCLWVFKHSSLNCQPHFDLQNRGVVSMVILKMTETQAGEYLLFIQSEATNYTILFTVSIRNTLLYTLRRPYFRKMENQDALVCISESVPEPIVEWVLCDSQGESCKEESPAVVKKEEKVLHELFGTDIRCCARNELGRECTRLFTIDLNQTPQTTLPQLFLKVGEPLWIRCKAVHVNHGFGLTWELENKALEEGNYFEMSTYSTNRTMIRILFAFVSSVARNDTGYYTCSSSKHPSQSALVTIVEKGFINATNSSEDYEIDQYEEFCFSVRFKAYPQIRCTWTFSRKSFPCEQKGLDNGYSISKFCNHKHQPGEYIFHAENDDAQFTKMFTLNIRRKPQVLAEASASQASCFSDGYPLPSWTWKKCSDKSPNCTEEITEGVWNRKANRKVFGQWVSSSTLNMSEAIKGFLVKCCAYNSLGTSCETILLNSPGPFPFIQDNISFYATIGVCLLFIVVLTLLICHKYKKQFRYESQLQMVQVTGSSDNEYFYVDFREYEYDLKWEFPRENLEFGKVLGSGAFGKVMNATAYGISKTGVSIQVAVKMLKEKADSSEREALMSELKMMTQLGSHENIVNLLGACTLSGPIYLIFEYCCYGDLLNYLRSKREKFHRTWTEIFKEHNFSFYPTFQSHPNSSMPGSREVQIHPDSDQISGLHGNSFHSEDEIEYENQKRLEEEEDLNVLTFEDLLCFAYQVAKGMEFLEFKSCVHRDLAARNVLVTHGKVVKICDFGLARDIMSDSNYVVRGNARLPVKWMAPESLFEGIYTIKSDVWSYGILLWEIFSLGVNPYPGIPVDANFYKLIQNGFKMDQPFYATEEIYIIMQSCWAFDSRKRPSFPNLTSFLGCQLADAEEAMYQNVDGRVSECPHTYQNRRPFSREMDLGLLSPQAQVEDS

[1] = tested on: other kinases including FMS and cKit; assay: Kinase panel screening, overall selectivity; details: 36 different kinases, single dose of 10 µM
Experimental: Next, we investigated kinase panel screening of 7d and 7b over 36 different kinases at a single dose of 10 µM (Figure 5). […] High selectivity over cKit might be an opportunity to avoid myelosuppression toxicity, which was reported from a dual FLT3/cKit inhibitor[19–22]. It is a valuable result to secure such a kinase selectivity profile considering the similarities of the same type III receptor tyrosine kinase (FMS, cKit and FLT3).
3. Evaluation of IC50 and Selected Kinase Profiling
We used Reaction Biology Corp. Kinase HotSpotSM service (www.reactionbiology.com) for IC50 determination of all compounds and kinase profile. Assay protocol: In a final reaction volume of 25 μL, Peptide substrate, [[…]], 5 µM, ATP 10 µM, FLT3(h) (5-10 […]
mU) is incubated with 25 mM Tris pH 7.5, 0.02 mM EGTA, 0.66 mg/mL myelin basic protein, 10 mM Mg Acetate and [γ-33P-ATP] (specific activity approx. 500 cpm/pmol, concentration as required). The reaction is initiated by the addition of the Mg-ATP mix. After incubation for 40 minutes at room temperature, the reaction is stopped by the addition of 5 μL of a 3% phosphoric acid solution. 10 μL of the reaction is then spotted onto a P30 filtermat and washed three times for 5 minutes in 75 mM phosphoric acid and once in methanol prior to drying and […]

RIPK3 = target: T2, RIPK3 (Homo sapiens, UniProt Q9Y572); assay: Reaction Biology Kinase HotSpot radiometric kinase assay; details: read-out: GW5074 IC50, control compound, footnote a: data for GW5074
T2 construct: purchased Reaction Biology Corp. (Kinase HotSpot service)
T2 sequence (Q9Y572 whole entry): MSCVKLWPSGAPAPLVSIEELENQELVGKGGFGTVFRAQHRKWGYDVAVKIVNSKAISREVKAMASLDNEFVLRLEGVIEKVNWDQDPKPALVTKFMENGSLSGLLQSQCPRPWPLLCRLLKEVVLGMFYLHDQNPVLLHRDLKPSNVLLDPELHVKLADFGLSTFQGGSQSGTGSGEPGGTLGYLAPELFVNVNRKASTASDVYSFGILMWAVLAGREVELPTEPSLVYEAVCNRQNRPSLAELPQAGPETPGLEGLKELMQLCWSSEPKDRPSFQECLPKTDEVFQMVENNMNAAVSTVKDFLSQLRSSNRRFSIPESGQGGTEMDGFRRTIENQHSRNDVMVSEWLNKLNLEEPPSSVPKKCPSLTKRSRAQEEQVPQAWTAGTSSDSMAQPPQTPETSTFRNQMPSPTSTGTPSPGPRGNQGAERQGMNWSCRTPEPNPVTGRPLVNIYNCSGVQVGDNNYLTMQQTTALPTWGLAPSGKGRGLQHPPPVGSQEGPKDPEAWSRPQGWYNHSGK

ERK1 = target: T3, ERK1 (Homo sapiens, UniProt P27361); assay: as above; details: control compound, footnote b: data for SCH772984
T3 construct: purchased Reaction Biology Corp. (Kinase HotSpot service)
T3 sequence (P27361 whole entry): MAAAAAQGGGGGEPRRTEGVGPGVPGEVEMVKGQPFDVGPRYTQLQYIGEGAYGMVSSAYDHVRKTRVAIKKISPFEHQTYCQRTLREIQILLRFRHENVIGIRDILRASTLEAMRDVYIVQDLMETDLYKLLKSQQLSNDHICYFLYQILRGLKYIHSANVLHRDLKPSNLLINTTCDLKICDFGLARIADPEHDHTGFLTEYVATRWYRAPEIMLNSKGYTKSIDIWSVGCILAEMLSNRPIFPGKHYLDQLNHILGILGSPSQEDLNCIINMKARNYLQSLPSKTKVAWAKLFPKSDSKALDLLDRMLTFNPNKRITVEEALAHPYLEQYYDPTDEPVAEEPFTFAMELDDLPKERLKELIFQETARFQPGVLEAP

| SMILES | IC50 (FLT3) [nM] | inhibitory activity towards FLT3 (in words) (FLT3) | also measured |
| --- | --- | --- | --- |
| CCN1CCN(Cc2cc(-c3ncc4ccc(NC(=O)c5cnoc5C)cc4n3)cc(C(F)(F)F)c2)CC1 [Compound 7e] | – | maintained the activity; also recorded: maintained inhibitory activity | decrease of activity towards FLT3 relative to 7d (FLT3; compared with 7d): about 10 fold |
| Cc1oncc1C(=O)Nc1ccc2cnc(-c3cnn(-c4ccccc4)c3C(F)(F)F)nc2c1 [Compound 7h] | – | loss of activity | – |
| COc1ccc(/C=C/c2ncc3ccc(NC(=O)c4cnoc4C)cc3n2)cc1 [Compound 7j] | 4700 | maintained inhibitory activity | – |
| Cc1oncc1C(=O)Nc1ccc2cnc(-c3cc(C(C)(C)C)on3)nc2c1 [Compound 7l] | – | did not show inhibitory activity towards FLT3 or were very weak | – |
| CC(=O)N1CCC(c2ncc3ccc(NC(=O)c4cnoc4C)cc3n2)CC1 [Compound 7o] | – | did not show inhibitory activity towards FLT3 or were very weak | – |
| Cc1oncc1C(=O)Nc1ccc2cnc(-c3ccncc3)nc2c1 [Compound 7p] | – | did not show inhibitory activity towards FLT3 or were very weak | – |
| Cc1oncc1C(=O)Nc1ccc2cnc(-c3ccccn3)nc2c1 [Compound 7q] | – | did not show inhibitory activity towards FLT3 or were very weak | – |
| O=C1Nc2ccc(I)cc2/C1=C/c1cc(Br)c(O)c(Br)c1 [GW5074, reference compound] | – | – | IC50 (RIPK3): 1650 nM |
| O=C(Nc1ccc2[nH]nc(-c3ccncc3)c2c1)[C@@H]1CCN(CC(=O)N2CCN(c3ccc(-c4ncccn4)cc3)CC2)C1 [SCH772984, reference compound] | – | – | IC50 (ERK1): 4.47 nM |

The next lines start with results.

| IC50 (FLT3) [nM] | SMILES | inhibitory activity towards FLT3 (in words) (FLT3) | also measured |
| --- | --- | --- | --- |
| 3980 | Cc1oncc1C(=O)Nc1ccc2cnc(-c3cc(N4CCOCC4)cc(C(F)(F)F)c3)nc2c1 [Compound 7b] | maintained the activity; also recorded: maintained inhibitory activity | activity on other kinases in panel (in words) [1]: almost no activity |
| 1580 | Cc1cn(-c2cc(-c3ncc4ccc(NC(=O)c5cnoc5C)cc4n3)cc(C(F)(F)F)c2)cn1 [Compound 7c] | maintained the activity; also recorded: maintained inhibitory activity | – |
| 790 | Cc1oncc1C(=O)Nc1ccc2cnc(-c3ccc4[nH]ncc4c3)nc2c1 [Compound 7m] | maintained inhibitory activity | – |
| 3590 | Cc1oncc1C(=O)Nc1ccc2cnc(-c3cc(OC4CCN(C)CC4)cc(C(F)(F)F)c3)nc2c1 [Compound 7n] | maintained the activity; also recorded: maintained inhibitory activity | – |
